Test results from ChEMBL document CHEMBL1201862, “PubChem BioAssay data set” (2004).
Values joined by “and” are separate entries in the source; they are usually repeats but may differ in a detail not shown here. Equal entries are not always repeated.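 Where inhibition never reached the appropriate level, the endpoint shown equals the highest concentration tested. Otherwise, values were interpolated linearly from a five-concentration, 48-hour dose response in 96-well plates. Here, GI50 denotes the concentration required for 50% inhibition of growth.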 Active and inactive are the calls of the source. Cut-off read from the data, not from the text of the source: active = GI50 up to about 1.1 µM and inactive = higher.

How the values were obtained:
Assay in all cases: inhibition of tumour cell growth, NCI panel, 48 h
[1] = system: UACC-257
[2] = system: NCI-H226
[3] = system: MDA-MB-231
[4] = system: SW-620
[5] = system: SR
[6] = system: COLO 205
[7] = system: ACHN
[8] = system: Malme-3M
[9] = system: MDA-N
[10] = system: T47D
[11] = system: DU-145
[12] = system: SF-268
[13] = system: SF-539
[14] = system: K562
[15] = system: OVCAR-4
[16] = system: OVCAR-3
[17] = system: CAKI-1
[18] = system: HT-29
[19] = system: IGROV-1
[20] = system: SK-MEL-2
[21] = system: LOX IMVI
[22] = system: U-251
[23] = system: M14
[24] = system: MCF7
[25] = system: SK-MEL-5
[26] = system: HCC 2998
[27] = system: OVCAR-8
[28] = system: EKVX
[29] = system: PC-3
[30] = system: HCT-15
[31] = system: TK-10
[32] = system: SNB-19
[33] = system: A498
[34] = system: SF-295
[35] = system: OVCAR-5
[36] = system: NCI-H23
[37] = system: SN12C
[38] = system: 786-0
[39] = system: SK-MEL-28
[40] = system: NCI/ADR-RES
[41] = system: SNB-75
[42] = system: MDA-MB-435
[43] = system: NCI-H460
[44] = system: SK-OV-3
[45] = system: MOLT-4
[46] = system: RXF 393
[47] = system: NCI-H522
[48] = system: HOP-62
[49] = system: HCT-116
[50] = system: CCRF-CEM
[51] = system: A549
[52] = system: Hs-578T
[53] = system: UACC-62
[54] = system: HL-60
[55] = system: UO-31
[56] = system: HOP-92
[57] = system: KM12

OCC(O)C(O)C(O)C(/C=N\Nc1ncnc2c(Br)cc(Br)cc12)=N/Nc1ncnc2c(Br)cc(Br)cc12 (stereo unspecified)
GI50 [1]: 8.15 µM (inactive) and 12.9 µM (inactive) | GI50 [2]: 3.58 µM (inactive) | GI50 [3]: 3.67 µM (inactive) and 3.79 µM (inactive) | GI50 [4]: 5.46 µM (inactive) | GI50 [5]: 3.4 µM (inactive) and 5.25 µM (inactive) | GI50 [6]: 3.17 µM (inactive) and 3.52 µM (inactive) | GI50 [7]: 5.58 µM (inactive) and 6.35 µM (inactive) | GI50 [8]: 6.4 µM (inactive) and 3.76 µM (inactive) | GI50 [9]: 7.46 µM (inactive) and 6.08 µM (inactive) | GI50 [10]: 2.57 µM (inactive) and 2.62 µM (inactive) | GI50 [11]: 5.9 µM (inactive) and 3.42 µM (inactive) | GI50 [12]: 3.78 µM (inactive) and 3.15 µM (inactive) | GI50 [13]: 8.85 µM (inactive) | GI50 [14]: 5.07 µM (inactive) and 5.15 µM (inactive) | GI50 [15]: 2.81 µM (inactive) and 3.27 µM (inactive) | GI50 [16]: 4.28 µM (inactive) and 2.88 µM (inactive) | GI50 [17]: 4.85 µM (inactive) and 6.34 µM (inactive) | GI50 [18]: 4.84 µM (inactive) and 4.55 µM (inactive) | GI50 [19]: 4.71 µM (inactive) and 2.49 µM (inactive) | GI50 [20]: 5.41 µM (inactive) and 3.27 µM (inactive) | GI50 [21]: 6.43 µM (inactive) and 10.1 µM (inactive) | GI50 [22]: 2.49 µM (inactive) and 4.46 µM (inactive) | GI50 [23]: 8.2 µM (inactive) and 8.38 µM (inactive) | GI50 [24]: 1.24 µM (inactive) and 817 nM (active) | GI50 [25]: 3.45 µM (inactive) and 4.71 µM (inactive)

CC(C)(C)OC(=O)C1C(=O)NC(=O)CC1C(OCc1ccccc1)C(OCc1ccccc1)C(COCc1ccccc1)OCc1ccccc1 (stereo unspecified)
GI50 [1]: > 100 µM (inactive) and 58.7 µM (inactive) | GI50 [26]: > 100 µM (inactive) | GI50 [27]: > 100 µM (inactive) and 52.5 µM (inactive) | GI50 [28]: > 100 µM (inactive) | GI50 [29]: > 100 µM (inactive) and 69.2 µM (inactive) | GI50 [2]: > 100 µM (inactive) and 61.9 µM (inactive) | GI50 [4]: > 100 µM (inactive) | GI50 [6]: 58.2 µM (inactive) | GI50 [7]: > 75 µM (inactive) | GI50 [30]: > 100 µM | GI50 [9]: > 100 µM (inactive) | GI50 [31]: > 100 µM (inactive) | GI50 [10]: 2.14 µM (inactive) | GI50 [32]: > 100 µM (inactive) | GI50 [11]: > 75 µM (inactive) | GI50 [33]: > 75 µM (inactive) | GI50 [12]: 74 µM (inactive) and 71.4 µM (inactive) | GI50 [34]: 50.6 µM (inactive) | GI50 [13]: > 100 µM (inactive) | GI50 [14]: 65.8 µM (inactive) and 88.3 µM (inactive) | GI50 [15]: 50.6 µM (inactive) | GI50 [35]: > 100 µM (inactive) | GI50 [18]: 16.6 µM (inactive) | GI50 [19]: > 100 µM (inactive) | GI50 [36]: > 100 µM (inactive) | GI50 [37]: > 100 µM (inactive) | GI50 [38]: > 100 µM (inactive) | GI50 [23]: > 100 µM (inactive) and 71.8 µM (inactive) | GI50 [39]: > 100 µM (inactive) | GI50 [40]: > 100 µM (inactive) and 58.6 µM (inactive)

Cc1cc2nn(C3CCCO3)nc2cc1C (stereo unspecified)
GI50 [1]: > 100 µM (inactive) | GI50 [26]: > 100 µM (inactive) | GI50 [27]: > 100 µM (inactive) | GI50 [28]: > 100 µM (inactive) | GI50 [29]: > 100 µM (inactive) | GI50 [2]: > 100 µM (inactive) | GI50 [3]: > 100 µM (inactive) | GI50 [5]: > 100 µM (inactive) | GI50 [6]: > 100 µM (inactive) | GI50 [41]: 69.3 µM (inactive) | GI50 [42]: > 100 µM (inactive) | GI50 [8]: > 100 µM (inactive) | GI50 [30]: > 100 µM | GI50 [9]: > 100 µM (inactive) | GI50 [31]: > 100 µM (inactive) | GI50 [10]: > 100 µM (inactive) | GI50 [43]: > 100 µM (inactive) | GI50 [11]: > 100 µM (inactive) | GI50 [33]: > 100 µM (inactive) | GI50 [12]: > 100 µM (inactive) | GI50 [44]: > 100 µM (inactive) | GI50 [34]: > 100 µM (inactive) | GI50 [45]: > 100 µM (inactive) | GI50 [13]: > 100 µM (inactive) | GI50 [14]: > 100 µM (inactive) | GI50 [15]: > 100 µM (inactive) | GI50 [35]: > 100 µM (inactive) | GI50 [16]: > 100 µM (inactive) | GI50 [17]: > 100 µM (inactive) | GI50 [18]: > 100 µM (inactive) | GI50 [46]: > 100 µM (inactive) | GI50 [47]: > 100 µM (inactive) | GI50 [19]: > 100 µM (inactive) | GI50 [48]: > 100 µM (inactive) | GI50 [36]: > 100 µM (inactive) | GI50 [37]: > 100 µM (inactive) | GI50 [20]: > 100 µM (inactive) | GI50 [38]: > 100 µM (inactive) | GI50 [49]: > 100 µM (inactive) | GI50 [22]: > 100 µM (inactive) | GI50 [23]: > 100 µM (inactive) | GI50 [50]: > 100 µM (inactive) | GI50 [24]: > 100 µM (inactive) | GI50 [25]: > 100 µM (inactive) | GI50 [51]: > 100 µM (inactive) | GI50 [40]: > 100 µM (inactive) | GI50 [52]: > 100 µM (inactive) | GI50 [53]: > 100 µM (inactive)

O=c1c2cccnc2oc2c(Cl)cc(-c3nnn[nH]3)cc12
GI50 [54]: > 100 µM (inactive) | GI50 [26]: > 100 µM (inactive) | GI50 [27]: > 100 µM (inactive) | GI50 [28]: > 100 µM (inactive) | GI50 [29]: > 100 µM (inactive) | GI50 [2]: > 100 µM (inactive) | GI50 [3]: > 100 µM (inactive) | GI50 [4]: > 100 µM (inactive) | GI50 [5]: > 100 µM (inactive) | GI50 [6]: > 100 µM (inactive) | GI50 [7]: > 100 µM (inactive) | GI50 [41]: > 100 µM (inactive) | GI50 [42]: > 100 µM (inactive) | GI50 [8]: > 100 µM (inactive) | GI50 [30]: > 100 µM | GI50 [55]: 24.7 µM (inactive) | GI50 [9]: > 100 µM (inactive) | GI50 [31]: > 100 µM (inactive) | GI50 [10]: > 100 µM (inactive) | GI50 [32]: > 100 µM (inactive) | GI50 [11]: > 100 µM (inactive) | GI50 [33]: > 100 µM (inactive) | GI50 [12]: > 100 µM (inactive) | GI50 [44]: > 100 µM (inactive) | GI50 [13]: > 100 µM (inactive) | GI50 [14]: > 100 µM (inactive) | GI50 [15]: > 100 µM (inactive) | GI50 [35]: > 100 µM (inactive) | GI50 [16]: > 100 µM (inactive) | GI50 [17]: > 100 µM (inactive) | GI50 [56]: 68.7 µM (inactive) | GI50 [18]: > 100 µM (inactive) | GI50 [46]: > 100 µM (inactive) | GI50 [19]: > 100 µM (inactive) | GI50 [48]: > 100 µM (inactive) | GI50 [36]: > 100 µM (inactive) | GI50 [37]: > 100 µM (inactive) | GI50 [20]: > 100 µM (inactive) | GI50 [49]: > 100 µM (inactive) | GI50 [23]: > 100 µM (inactive) | GI50 [50]: > 100 µM (inactive) | GI50 [25]: > 100 µM (inactive) | GI50 [51]: > 100 µM (inactive) | GI50 [39]: > 100 µM (inactive) | GI50 [40]: > 100 µM (inactive) | GI50 [57]: > 100 µM (inactive) | GI50 [52]: > 100 µM (inactive) | GI50 [53]: > 100 µM (inactive)
